Source: patent US7452865B2, “Antagonistic analogs of GH RH (2003)” (The Administrare's of the Tulane Educational Fund, priority 2004, dated 2008)
Marks after values point to notes of the source that are not given here. One block for each molecule: values may come before it. Square brackets hold non-standard residues; d marks the D form. Peptide text beside a SMILES is read from it. * marks the point of attachment. Phe(4-Cl) = N[C@@H](Cc1ccc(Cl)cc1)C(=O)O; hArg = N=C(N)NCCCC[C@H](N)C(=O)O; Nle = CCCC[C@H](N)C(=O)O; Abu = CC[C@H](N)C(=O)O; PhAc = O=C(Cc1ccccc1)*

Key:
[1] = system: PC-3 human prostate cancer xenografts; test: PC-3 xenografts in nude mice, Experiment 1: tumor growth; format: in vivo
Description: (§1) Male nude mice were implanted s.c. with 3 mm^3 pieces of PC-3 human hormone-independent prostate cancer tissue on both flanks. When tumors reached a volume of approx. 50 mm^3, the mice were divided into 5 experimental groups with 7 to 8 animals in each group and received single daily injections for 28 days as follows: 1. Control (vehicle solution); 2. JV-1-38 (10 μg/day s.c.); 3 Peptide 31 (10 μg/day s.c.); 4. Peptide 67 (10 μg/day s.c.); 5. Peptide 62 (10 μg/day s.c.). Tumor volumes were measured twice a week. The experiment was ended on day 29 by sacrificing the mice under Isoflurane anesthesia. Resulting tumors were cleaned, weighed, and snap-frozen until further analyses. Trunk blood was collected from the abdominal aorta and serum was separated for RIA measurement of IGF-I. Statistical analyses of the measurement results were done by two-tailed t-test; data are presented as the means±S.E.

IGF-I [2] = test: PC-3 xenografts, Experiment 1: serum IGF-I (RIA); format: in vivo, nude mice; details: 10 μg/day s.c., 28 days
Source text: (§2) For the measurement of GH and IGF-I levels in the serum, as well as IGF-I and IGF-II concentrations in the cytosol fraction of tumors, blood samples and tumor samples were collected and processed as described (Braczkowski R, Schally A V, Plonowski A, Varga J L, Groot K, Krupa M, Armatis P, Cancer 95: 1735-1745, 2002), hereby incorporated by reference. Briefly, blood samples are centrifuged to separate the serum, tumors are homogenized and centrifuged to separate the cytosol fraction. Serum GH is then measured by the double-antibody RIA method. Before measurement by RIA, IGF-I and IGF-II are extracted from serum and cytosol fractions using an acid-ethanol cryoprecipitation method that eliminates most of the IGF binding proteins, which can interfere with the RIA. IGF-I concentration is measured by RIA using IGF-I as a standard and goat anti-IGF-I antibody (both from DSL Inc., Webster, Tex.). IGF-II concentration is measured by RIA using human recombinant IGF-II (Bachem) as a standard and anti-IGF-II monoclonal antibody (Amano International Enzyme, Troy, Va.).
as §1

IGF-II = test: PC-3 xenografts, Experiment 1: tumor IGF-II (RIA); format: in vivo, nude mice; details: 10 μg/day s.c., 28 days
Source text: as §2, §1

[3] = system: hGH-RH(1-29)NH2 induced GH release; test: Inhibition of GH release in superfused rat pituitary system; format: cell-based; details: antagonist 30 nM
In short: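 GH output was quantified by double-antibody RIA in superfusates of rat pituitary cells. Peptides were applied for 9 min at various concentrations before a 3-min 1 nM hGH-RH(1-29)NH2 pulse, with further pulses 30–120 min later; net integral responses given as percent of the original response.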

IGF-I [4] = test: PC-3 xenografts, Experiment 2: serum IGF-I (RIA); format: in vivo, nude mice; details: 28 days
Source text: as §2, §1
(§3) Experiment 2 was similar to Experiment 1, with the difference that Experiment 2 was started when PC-3 tumors had grown to approximately 30 mm^3 in volume. At this time, the animals were divided into 8 experimental groups with 8 animals in each group, and received single daily injections for 28 days as follows. 1. Control (vehicle solution); 2. JV-1-38 (10 μg/day s.c.); 3. Peptide 46 (5 μg/day: s.c.); 4. Peptide 77 (5 μg/day s.c); 5. Peptide 76 (5 μg/day s.c.); 6. Peptide 70 (5 μg/day s.c.); 7 Peptide 79 (5 μg/day s.c.); 8. Peptide 80 (5 μg/day s.c.). Further details of Experiment 2 are the same as for Experiment 1.

[5] = system: PC-3 human prostate cancer xenografts; test: PC-3 xenografts in nude mice, Experiment 2: tumor growth; format: in vivo; details: for Tumor volume (mm^3) Initial: at start of treatment
Description: as §1, §3

[6] = system: PC-3 human prostate cancer xenografts; test: PC-3 xenografts in nude mice, Experiment 3: tumor growth; format: in vivo
Description: (§4) Male nude mice were implanted s.c. with 3 mm^3 pieces of PC-3 human hormone-independent prostate cancer tissue on both flanks. When tumors reached a volume of approximately 65 mm^3, the mice were divided into 7 experimental groups with 8 to 9 animals in each group and received single daily injections for 28 days as follows: 1. Control (vehicle solution); 2. JV-1-38 (10 μg/day s.c.); 3. Peptide 35 (10 μg/day s.c.); 4. Peptide 36 (10 μg/day s.c.); 5. Peptide 37 (10 μd/day s.c.); 6. Peptide 39 (10 μg/day s.c.); 7. Peptide 41 (10 μg/day s.c.). Tumor volumes were measured twice a week. The experiment was ended on day 28 by sacrificing the mice under Isofurane anesthesia. Resulting tumors were cleaned, weighed, and snapfrozen until further analyses. Trunk blood was collected from the abdominal aorta and serum was separated for RIA measurement of IGF-I. Statistical analyses of the measurement results were done by ANOVA followed by Fisher test; data are presented as the means±S.E.

[7] = system: PC-3 human prostate cancer xenografts; test: PC-3 xenografts in nude mice, Experiment 4: tumor growth; format: in vivo; details: for Tumor volume (mm^3) Final / Tumor volume doubling time / Tumor weight / Tumor volume Final (% inhibition) / Tumor weight (% inhibition): 5 μg/day s.c., 28 days; for Tumor volume Final (% inhibition) / Tumor weight (% inhibition): vs control; for Tumor volume (mm^3) Initial: at start of treatment
Description: as §4
(§5) All experimental details of Experiment 4 are the same as for Experiment 3, with the following difference. When tumors reached a volume of approximately 55 mm^3, the mice were divided into 5 experimental groups with 8 to 9 animals in each group and received single daily injections for 28 days as follows: 1. Control (vehicle solution); 2. Peptide 80 (5 μg/day s.c.); 3. Peptide 86 (5 μg/day s.c.); 4. Peptide 95 (5 μg/day s.c.); 5. Peptide 96 (5 μg/day s.c.). Further details of Experiment 4 are the same as for Experiment 3.

[8] = system: GH-RH receptor isoforms on membrane fractions of human PC-3 prostate tumors; format: binding; details: general statement
In short: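 Competitive displacement of [^125I]JV-1-42 from crude membranes of human PC-3 prostate tumours grown as nude-mouse xenografts, with unlabelled peptides at 10^−12 to 10^−6 M. Bound radioactivity in the centrifuged pellet gamma-counted; Ki from Munson–Rodbard analysis. Relative affinity = Ki of reference peptide (JV-1-36 or JV-1-38) / Ki of test antagonist.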

IGF-I [9] = test: PC-3 xenografts, Experiment 4: serum IGF-I (RIA); format: in vivo, nude mice; details: 5 μg/day s.c., 28 days; for Serum IGF-I (% inhibition): vs control
Source text: as §2, §4, §5

[10] = 10 μg/day s.c., 28 days, vs control
[11] = 5 μg/day s.c., 28 days, vs control

Molecule: CCCC[C@H](NC(=O)[C@@H](NC(=O)[C@H](CC(=O)O)NC(=O)[C@H](CCC(N)=O)NC(=O)[C@H](CC(C)C)NC(=O)[C@H](CC(C)C)NC(=O)[C@H](CCCCN)NC(=O)[C@H](CCCNC(=N)N)NC(=O)[C@H](C)NC(=O)[C@H](CO)NC(=O)[C@H](CC(C)C)NC(=O)[C@H](CCC(N)=O)NC(=O)[C@H](CC)NC(=O)[C@H](CC(C)C)NC(=O)[C@@H](NC(=O)[C@H](CCCCN)NC(=O)[C@H](CCCNC(=N)N)NC(=O)[C@H](Cc1ccc(OC)cc1)NC(=O)[C@H](CCCCNC(=N)N)NC(=O)[C@H](CC(N)=O)NC(=O)[C@@H](NC(=O)[C@H](Cc1ccc(Cl)cc1)NC(=O)[C@@H](NC(=O)[C@H](C)NC(=O)[C@H](CC(=O)O)NC(=O)[C@@H](CCCNC(=N)N)NC(=O)[C@H](Cc1ccc(O)cc1)NC(=O)Cc1ccccc1)[C@@H](C)CC)[C@@H](C)O)C(C)C)[C@@H](C)CC)C(=O)N[C@H](CCCNC(=N)N)C(=O)N[C@@H](CCCCNC(=N)N)C(N)=O [JV-1-38, reference compound] (PhAc-Y[dR]DAI[Phe(4-Cl)]TN[hArg]Y(Me)RKVL[Abu]QLSARKLLQDI[Nle][dR][hArg]-NH2; N-terminus and C-terminus assumed)
Tumor volume (mm^3) Final ([1]; 10 μg/day s.c., 28 days): 291 ± 80.4 mm^3 | Tumor volume doubling time ([1]; 10 μg/day s.c., 28 days): 12.3 ± 1.04 days | Tumor weight ([1]; 10 μg/day s.c., 28 days): 239 ± 58.0 mg | Tumor volume Final (% inhibition) [1, 10]: (42%) | Tumor weight (% inhibition) [1, 10]: (37%) | Tumor volume (mm^3) Initial ([1]; at start of treatment): 49.2 ± 8.37 mm^3 | Serum IGF-I (IGF-I [2]): 147 ± 8.49 ng/mL | Serum IGF-I (% inhibition) (IGF-I [2]; vs control): (1%) | Tumor IGF-II (pg/mg protein) (IGF-II): 208 ± 43.3 pg/mg protein | Tumor IGF-II (% inhibition) (IGF-II; vs control): (5%) | GH response (% of control) 0 min ([3]; 1 nM hGH-RH(1-29)NH2 at 0 min): 59 % of control | GH response (% of control) 30 min ([3]; 1 nM hGH-RH(1-29)NH2 at 30 min): 32 % of control | GH response (% of control) 60 min ([3]; 1 nM hGH-RH(1-29)NH2 at 60 min): 28 % of control | GH response (% of control) 90 min ([3]; 1 nM hGH-RH(1-29)NH2 at 90 min): 34 % of control | GH response (% of control) 120 min ([3]; 1 nM hGH-RH(1-29)NH2 at 120 min): 31 % of control | Serum IGF-I (IGF-I [4]; 10 μg/day s.c.): 293 ± 28.0 ng/mL | Tumor volume (mm^3) Initial ([5]; 10 μg/day group): 29.3 ± 3.8 mm^3 | Tumor volume (mm^3) Final ([5]; 10 μg/day s.c., 28 days): 351 ± 72.9 mm^3 | Tumor volume doubling time ([5]; 10 μg/day s.c., 28 days): 8.7 ± 0.7 days | Tumor weight ([5]; 10 μg/day s.c., 28 days): 254 ± 52.0 mg | Tumor volume Final (% inhibition) [5, 10]: (0%) | Tumor volume (mm^3) Final ([6]; 10 μg/day s.c., 28 days): 276 ± 48.7** mm^3 | Tumor volume doubling time ([6]; 10 μg/day s.c., 28 days): 18.2 ± 1.84 days | Tumor weight ([6]; 10 μg/day s.c., 28 days): 386 ± 62.9 mg | Tumor volume Final (% inhibition) [6, 10]: (66%) | Tumor weight (% inhibition) [6, 10]: (45%) | Tumor volume (mm^3) Initial ([6]; at start of treatment): 68.3 ± 8.08 mm^3

binding affinities to the tumoral receptors for GH-RH (in words) [8]: extremely high binding affinities
Molecule: [CH3(CH2)6CO-Tyr^1, D-Arg^2, Phe(pCl)^6, Ala^8, His^9, Tyr(Et)^10, His^11, Abu^15, Nle^27, D-Arg^28, Har^29]hGH-RH(1-29)NH2 [Peptide 80]
Tumor volume (mm^3) Final [7]: 398 ± 68.7* mm^3 | Tumor volume doubling time [7]: 10.7 ± 1.28 days | Tumor weight [7]: 752 ± 150 mg | Tumor volume Final (% inhibition) [7]: 68% | Tumor weight (% inhibition) [7]: 48% | Tumor volume (mm^3) Initial [7]: 53.2 ± 10.1 mm^3 | Serum IGF-I (IGF-I [4]; 5 μg/day s.c.): 152 ± 7.83 ng/mL | Serum IGF-I (% inhibition) (IGF-I [4]; 5 μg/day s.c., vs control): 42% | Tumor volume (mm^3) Initial ([5]; 5 μg/day groups): 24.8 ± 2.2 mm^3 | Tumor volume (mm^3) Final ([5]; 5 μg/day s.c., 28 days): 128 ± 38.9*# mm^3 | Tumor volume doubling time ([5]; 5 μg/day s.c., 28 days): 16.7 ± 4.3 days | Tumor weight ([5]; 5 μg/day s.c., 28 days): 137 ± 46.1 mg | Tumor volume Final (% inhibition) [5, 11]: (64%) | Tumor weight (% inhibition) [5, 11]: (52%) | Serum IGF-I (IGF-I [9]): 136 ± 15.3 ng/mL | Serum IGF-I (% inhibition) (IGF-I [9]): 18%

binding affinities to the tumoral receptors for GH-RH (in words) [8]: extremely high binding affinities
Molecule: [CH3(CH2)6CO-Tyr^1, D-Arg^2, Phe(pCl)^6, Ala^8, His^9, Tyr(Et)^10, His^11, Orn^12, Abu^15, Orn^21, Nle^27, D-Arg^28, Har^29]hGH-RH(1-29)NH2 [Peptide 95]
Tumor volume (mm^3) Final [7]: 393 ± 79.8* mm^3 | Tumor volume doubling time [7]: 12.5 ± 1.80 days | Tumor weight [7]: 666 ± 131 mg | Tumor volume Final (% inhibition) [7]: 69% | Tumor weight (% inhibition) [7]: 54% | Tumor volume (mm^3) Initial [7]: 60.9 ± 12.2 mm^3 | Serum IGF-I (IGF-I [9]): 127 ± 17.5 ng/mL | Serum IGF-I (% inhibition) (IGF-I [9]): 23%
